# Measured values from ChEMBL document CHEMBL1143466, “Conformationally constrained N1-arylsulfonyltryptamine derivatives as 5-HT6 receptor antagonists” (Bioorg Med Chem Lett, 2005).
# How the values were obtained:
# [1] = target: T1, 5-hydroxytryptamine receptor 6 (Homo sapiens, UniProt P50406); assay: Displacement of [3H]LSD from cloned human 5-hydroxytryptamine 6 receptor expressed in HeLa cells; type: cell-based
# [2] = target: T1, 5-hydroxytryptamine receptor 6; assay: Inhibition of cAMP production in HeLa cells expressing human 5-HT6 receptor; type: functional, cell-based
# [3] = target: T1, 5-hydroxytryptamine receptor 6; assay: Maximum inhibition of cAMP production in HeLa cells expressing human 5-HT6 receptors; type: functional, cell-based
# [4] = target: T1, 5-hydroxytryptamine receptor 6; assay: Effective concentration for cAMP production in HeLa cells expressing human 5-HT6 receptors; type: functional, cell-based
# [5] = target: T1, 5-hydroxytryptamine receptor 6; assay: Maximum effective concentration for cAMP production in HeLa cells expressing human 5-HT6 receptors; type: functional, cell-based
# T1 sequence (P50406 whole entry): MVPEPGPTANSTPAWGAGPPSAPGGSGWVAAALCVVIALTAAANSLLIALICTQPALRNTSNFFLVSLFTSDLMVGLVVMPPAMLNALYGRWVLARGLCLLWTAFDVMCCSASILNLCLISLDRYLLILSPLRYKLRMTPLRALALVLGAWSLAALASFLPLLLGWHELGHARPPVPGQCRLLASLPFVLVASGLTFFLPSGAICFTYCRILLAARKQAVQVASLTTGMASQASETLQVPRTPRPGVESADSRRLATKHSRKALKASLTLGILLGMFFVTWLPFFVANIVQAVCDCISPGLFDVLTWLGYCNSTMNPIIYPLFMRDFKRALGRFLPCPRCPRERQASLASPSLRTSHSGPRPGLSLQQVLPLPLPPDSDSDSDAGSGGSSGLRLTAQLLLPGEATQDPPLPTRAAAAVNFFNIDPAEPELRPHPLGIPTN
SMILES,Ki [1] [nM],IC50 [2] [nM],Imax [3] [%],other results
O=S(=O)(c1ccc(Cl)c(Cl)c1)n1cc(C[C@@H]2CCCN2)c2ccccc21,49,–,–,–
CN1CCC[C@H]1Cc1cn(S(=O)(=O)c2cccc(Cl)c2)c2ccccc12,4,96.2,77,–
Cc1nc(N)sc1S(=O)(=O)n1cc(C2CCN(Cc3ccccc3)C2)c2ccccc21 (centres undefined),–,110,97,–
CN1CCC(c2cn(S(=O)(=O)c3ccccc3Br)c3ccccc23)C1 (centres undefined),–,53.3,98.5,–
O=S(=O)(c1ccccc1)n1c2c(c3ccccc31)CCNC2,253,–,–,–
O=S(=O)(c1ccccc1)n1cc(C2=CCCNC2)c2ccccc21,4.6,–,–,EC50 [4]: 159 nM; Emax [5]: 41%
O=S(=O)(c1cccc(Cl)c1Cl)n1cc(C2=CCCNC2)c2ccccc21,20,–,–,–
Cc1ccc(S(=O)(=O)n2cc(C[C@@H]3CCCN3C)c3ccccc32)cc1,5,56.3,78.5,–
O=S(=O)(c1ccccc1Cl)n1cc(C2=CCCNC2)c2ccccc21,13,–,–,–
Nc1ccc(S(=O)(=O)n2cc(C[C@@H]3CCCN3)c3ccccc32)cc1,7,7.6,72.9,–
CN1CCC[C@H]1Cc1cn(S(=O)(=O)c2ccc(Cl)c(Cl)c2)c2ccccc12,12,7.3,86.5,–
Cc1ccc(S(=O)(=O)n2cc(C[C@@H]3CCCN3)c3ccccc32)cc1,33,–,–,–
COc1ccc(S(=O)(=O)n2cc(C[C@@H]3CCCN3)c3ccccc32)cc1,40,–,–,–
O=S(=O)(c1ccccc1)n1cc(C[C@@H]2CCCN2)c2ccccc21,27.7,–,–,–
CN1CCC(c2cn(S(=O)(=O)c3ccc(I)cc3)c3ccccc23)C1 (centres undefined),–,43.6,93.5,–
O=S(=O)(c1ccc(Cl)c(Cl)c1)n1cc(C2CCN(Cc3ccccc3)C2)c2ccccc21 (centres undefined),–,61,63,–
CN1CCC[C@H]1Cc1cn(S(=O)(=O)c2ccc(N)cc2)c2ccccc12,3,24.5,100,–
COc1ccc(S(=O)(=O)n2cc(C3CCCNC3)c3ccccc32)cc1 (centres undefined),–,7.3,65.5,–
COc1ccc(S(=O)(=O)n2cc(C3=CCCNC3)c3ccccc32)cc1,16,–,–,–
O=S(=O)(c1ccc(F)cc1F)n1cc(C2=CCCNC2)c2ccccc21,13,–,–,–
O=S(=O)(c1ccccc1)n1cc(C2CCCNC2)c2ccccc21 (stereo in doubt) [listing 1 of 2 here],1,–,–,EC50 [4]: 36 nM
CN1CCC(c2cn(S(=O)(=O)c3ccc(F)cc3)c3ccccc23)C1 (centres undefined),–,52.5,83.5,–
COc1ccc(S(=O)(=O)n2cc(C3CCN(C)C3)c3ccccc32)cc1OC (centres undefined),–,96.7,100,–
CN1CCC(c2cn(S(=O)(=O)c3ccc(Cl)cc3)c3ccccc23)C1 (centres undefined),–,85.5,86.5,–

SMILES,Ki [1] [nM],IC50 [2] [nM],Imax [3] [%],other results
O=S(=O)(c1ccc(Br)s1)n1cc(C[C@@H]2CCCN2)c2ccccc21,20,–,–,–
CN1CCC[C@H]1Cc1cn(S(=O)(=O)c2ccccc2Br)c2ccccc12,7,76.5,87.5,–
O=S(=O)(c1ccc(F)cc1)n1cc(C2=CCCNC2)c2ccccc21,10.5,–,–,EC50 [4]: 345 nM; Emax [5]: 62%
O=S(=O)(c1cccc(Cl)c1)n1c2c(c3ccccc31)CCNC2,41.7,–,–,–
"O=S(=O)(c1ccccc1)n1cc(C2CCCNC2)c2ccccc21 (single isomer, unassigned; enantiomer 1) [listing 1 of 2 here]",–,–,–,Emax [5]: 0%
CN1CCC[C@H]1Cc1cn(S(=O)(=O)c2ccc(Cl)cc2)c2ccccc12,7,8.2,86,–
CN1CCC[C@H]1Cc1cn(S(=O)(=O)c2ccc(Br)s2)c2ccccc12,3,112,96,–
Cc1c(S(=O)(=O)n2cc(C3CCCNC3)c3ccccc32)sc2ccc(Cl)cc12 (centres undefined),44,–,–,–
O=S(=O)(c1ccc(Cl)s1)n1cc(C2CCCNC2)c2ccccc21 (centres undefined),–,–,–,EC50 [4]: 58.5 nM; Emax [5]: 93%
Cc1nc(C)c(S(=O)(=O)n2cc(C3=CCCNC3)c3ccccc32)o1,58,–,–,–
CN1CCC[C@@H]1Cc1cn(S(=O)(=O)c2ccc(Br)s2)c2ccccc12,4,–,–,EC50 [4]: 103 nM; Emax [5]: 76.5%
O=S(=O)(c1ccccc1)n1cc(C2CCCNC2)c2ccccc21 (racemic) [listing 1 of 2 here],–,–,–,Emax [5]: 100%
O=S(=O)(c1ccc(F)c(F)c1)n1cc(C2CCCNC2)c2ccccc21 (centres undefined),–,–,–,EC50 [4]: 66 nM; Emax [5]: 60.5%
COc1ccc(S(=O)(=O)n2cc(C[C@@H]3CCCN3C)c3ccccc32)cc1,19.3,–,–,–
CN1CCC(c2cn(S(=O)(=O)c3ccc(Cl)c(Cl)c3)c3ccccc23)C1 (centres undefined),–,107,100,–
"O=S(=O)(c1ccccc1)n1cc(C2CCCNC2)c2ccccc21 (single isomer, unassigned; enantiomer 1) [listing 2 of 2 here]",3,–,–,–
O=S(=O)(c1ccc(F)c(F)c1)n1cc(C2=CCCNC2)c2ccccc21,26,–,–,–
O=S(=O)(c1ccc(I)cc1)n1cc(C[C@@H]2CCCN2)c2ccccc21,34,–,–,–
O=S(=O)(c1ccccc1C(F)(F)F)n1cc(C2=CCCNC2)c2ccccc21,21.7,–,–,–
O=S(=O)(c1cccc(Cl)c1)n1cc(C2=CCCNC2)c2ccccc21,14,–,–,–
CN1CCC[C@H]1Cc1cn(S(=O)(=O)c2ccccc2)c2ccccc12,5,81.4,87,–
Cc1c(S(=O)(=O)n2cc(C[C@@H]3CCCN3C)c3ccccc32)sc2ccc(Cl)cc12,11,11,87.5,–
Cc1nn(C)c(Cl)c1S(=O)(=O)n1cc(C2=CCCNC2)c2ccccc21,8,–,–,EC50 [4]: 89.5 nM; Emax [5]: 50%
CN1CCC[C@@H]1Cc1cn(S(=O)(=O)c2ccccc2)c2ccccc12,8,0.6,75,–

SMILES,Ki [1] [nM],IC50 [2] [nM],Imax [3] [%],other results
O=S(=O)(c1ccc(Cl)s1)n1cc(C2=CCCNC2)c2ccccc21,22.7,–,–,–
CN1CCC[C@H]1Cc1cn(S(=O)(=O)c2ccc(Cl)s2)c2ccccc12,4,1,99,–
Nc1ccc(S(=O)(=O)n2cc(C3CCN(Cc4ccccc4)C3)c3ccccc32)cc1 (centres undefined),–,25,97,–
CN1CCC(c2cn(S(=O)(=O)c3ccc(N)cc3)c3ccccc23)C1 (centres undefined),–,15.5,89.5,–
O=S(=O)(c1ccc(Cl)cc1)n1cc(C2=CCCNC2)c2ccccc21,22,–,–,–
CN1CCC[C@H]1Cc1cn(S(=O)(=O)c2ccc(I)cc2)c2ccccc12,3,49.5,99.5,–
O=S(=O)(c1ccc(Cl)s1)n1cc(C[C@@H]2CCCN2)c2ccccc21,25,–,–,–
Cc1c(S(=O)(=O)n2cc(C[C@H]3CCCN3)c3ccccc32)sc2ccc(Cl)cc12,284,–,–,–
O=S(=O)(c1cccs1)n1cc(C2CCCNC2)c2ccccc21 (centres undefined),9.8,–,–,–
Cc1ccc(S(=O)(=O)n2cc(C3CCN(Cc4ccccc4)C3)c3ccccc32)cc1 (centres undefined),–,123,72,–
O=S(=O)(c1ccccc1)n1cc(C2CCCNC2)c2ccccc21 (stereo in doubt) [listing 2 of 2 here],–,–,–,Emax [5]: 100%
O=S(=O)(c1ccccc1Br)n1cc(C[C@@H]2CCCN2)c2ccccc21,43,–,–,–
O=S(=O)(c1ccccc1Br)n1cc(C2CCN(Cc3ccccc3)C2)c2ccccc21 (centres undefined),–,21,62,–
O=S(=O)(c1cccc(Cl)c1)n1cc(C[C@@H]2CCCN2)c2ccccc21,22,–,–,–
Cc1ccc(S(=O)(=O)n2c3c(c4ccccc42)CCNC3)cc1,271,–,–,–
O=S(=O)(c1ccc(Cl)cc1)n1cc(C[C@@H]2CCCN2)c2ccccc21,49,–,–,–
O=S(=O)(c1cccc(C(F)(F)F)c1)n1cc(C2=CCCNC2)c2ccccc21,44.7,–,–,–
O=S(=O)(c1ccccc1)n1cc(C2CCCNC2)c2ccccc21 (racemic) [listing 2 of 2 here],–,–,–,EC50 [4]: 24 nM
O=S(=O)(c1ccc(Cl)c(Cl)c1)n1cc(C2=CCCNC2)c2ccccc21,48,–,–,–
Nc1ccc(S(=O)(=O)n2c3c(c4ccccc42)CCNC3)cc1,116,–,–,–
COc1ccc(S(=O)(=O)n2cc(C[C@@H]3CCCN3)c3ccccc32)cc1OC,23,–,–,–
O=S(=O)(c1ccc(Br)s1)n1cc(C2CCN(Cc3ccccc3)C2)c2ccccc21 (centres undefined),–,110,69,–
COc1ccc(S(=O)(=O)n2cc(C[C@@H]3CCCN3C)c3ccccc32)cc1OC,8,0.8,100,–
